Bridge positions count the residues as written; N and C are the ends. Ends that are not written are not given here. Peptide text beside a SMILES is read from it. Fluos = 5(6)-carboxyfluorescein
Key:
[1] = target: T1, CXCR2 (Homo sapiens, UniProt P25025); experiment: Receptor binding assay, flow cytometry, HEK293-CXCR2 vs HEK293-WT; conditions: 3.7 or 7.4 μM, on ice 2 h, HEK293-CXCR2 compared to non-transfected HEK293, flow cytometry, n=4–7
T1 construct: expressed in transfected cells
T1 sequence (P25025 1-360): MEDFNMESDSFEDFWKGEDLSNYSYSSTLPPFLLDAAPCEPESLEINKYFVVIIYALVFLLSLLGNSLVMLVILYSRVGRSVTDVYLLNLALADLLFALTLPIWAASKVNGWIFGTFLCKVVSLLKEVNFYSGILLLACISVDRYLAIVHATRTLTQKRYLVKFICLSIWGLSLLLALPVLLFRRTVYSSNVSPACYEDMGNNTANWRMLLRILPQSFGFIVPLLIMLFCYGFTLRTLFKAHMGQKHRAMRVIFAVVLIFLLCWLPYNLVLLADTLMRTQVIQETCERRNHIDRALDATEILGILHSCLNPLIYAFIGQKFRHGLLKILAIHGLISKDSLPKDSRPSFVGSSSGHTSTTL

[2] = target: T1, CXCR2; experiment: Label-free dynamic mass redistribution (DMR), HEK293-CXCR2 transfectants; format: cell-based; conditions: peptide 500 μM (MIF(47–56) also 100–500 μM), 30 s intervals
Description: Label‐free dynamic mass redistribution: Dynamic mass redistribution (DMR) analysis ^[22] was performed according to Perkin Elmer's instructions for label‐free DMR measurements. Briefly, cells were seeded at a density of 40 000 cells per well of an EnSpire label‐free 96‐well fibronectin‐coated cell assay microplate (PerkinElmer). Post‐seeding, the cells were equilibrated at RT for 30 min and cultivated overnight in serum‐containing DMEM/F‐12 medium. The next day, the cells were washed four times with assay buffer containing 20 mM HEPES and 1 % DMSO in HBSS (pH 7.4), using an aspiration wand leaving a residual volume of 35 μL. The plate was equilibrated at RT for 2 h. […] Before adding the peptides, baseline measurements were performed for 10 min (30 s intervals) using the EnSpire Label‐free Multimode Plate Reader (PerkinElmer). Then, 20 μL of the respective peptides were added to the cells at a final concentration of 500 μM followed by real‐time measurements over a time period of 40 min (30 s intervals). The signal output represents a cumulative response overlay of all cells.

[3] = CD concentration dependence study; format: physicochemical; conditions: between 5 and 100 μM
From the text: Peptides: Linear MIF‐derived peptides were generated by standard Fmoc‐based solid phase peptide synthesis (SPPS) in their N‐terminally acetylated and C‐terminally amidated forms and purified by reversed‐phase (RP)‐HPLC as previously described. ^[18] 5(6)‐Carboxyfluorescein (Fluos) N‐terminally labeled peptides were synthesized as described. ^[19] Peptide purity was verified by matrix‐assisted laser desorption ionization mass spectrometry (MALDI‐MS). Cyclic peptide derivatives MIF(cyclo0), MIF(cyclo4), MIF(cyclo6), and MIF(cyclo10), containing terminal cysteines and different numbers of glycine and serine spacer residues to tailor ring size, were custom‐synthesized and purified (>96 % purity grade) by American Peptide Company (APC), Inc./Bachem (Bubendorf, Switzerland), or as described previously, ^[20] applying standard disulfide‐based oxidation procedures. […] The sequence of the scrambled control peptide of MIF(47–56) is […].
Circular dichroism spectroscopy: CD spectra were recorded on a Jasco J‐715 spectropolarimeter in a wavelength range between 190 and 250 nm. Spectra were measured at 0.1 nm intervals and a response time of 1 s. […] Each spectrum was measured three times, averaged and smoothed after background subtraction of the buffer. […]

[4] = target: T2, Alexa‐488‐labeled recombinant MIF (Alexa‐MIF) (Homo sapiens, UniProt P14174); experiment: Fluorescence spectroscopic titration of Alexa-MIF with peptide; format: binding; conditions: Alexa-MIF 10 nM, peptide 0.1- to 1000-fold molar excess, 10 mM sodium phosphate pH 7.4, 1 % HFIP, RT, emission at 519 nm, three titrations
T2 construct: made in house
T2 sequence (P14174 1-115): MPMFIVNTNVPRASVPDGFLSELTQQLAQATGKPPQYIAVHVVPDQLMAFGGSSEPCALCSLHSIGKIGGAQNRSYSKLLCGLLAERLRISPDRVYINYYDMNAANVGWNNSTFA
Description: Fluorescence spectroscopy: Fluorescence spectroscopic titrations were performed on a Jasco FP‐6500 spectrofluorometer. Alexa Fluor‐488‐labelled rMIF (Alexa‐MIF) was reconstituted in 20 mM sodium phosphate buffer (pH 7.2). […] The excitation wavelength was set at 492 nm and fluorescence emission spectra were recorded between 500 and 600 nm within 2–3 min after the preparation of the mixtures at room temperature (RT).

[5] = Proteolytic stability assay in human plasma; format: in vitro ADME; conditions: 37 °C; for half-life: human plasma (citrate-anticoagulated), human plasma (citrate 10 mM, pH 7.0), peptide 200–500 μg/mL, TCA stop, intact peptide by C18 RP-HPLC (214 nm) peak area, MALDI-MS verified, three independent incubations, read-out: t1/2 in human blood plasma (converted)
Description: Proteolytic stability assay: Proteolytic stability studies of peptides were performed following a previously described experimental protocol.[ ^20 , ^23 ] Briefly, peptides were incubated (200–500 μg/mL) in human plasma, isolated from the blood of healthy volunteers by routine methods using citrate (10 mM, pH 7.0) as an anti‐coagulant, at 37 °C for various time intervals. At the end of each interval, a stop solution (1 : 1) containing aqueous trichloroacetic acid (TCA, 10 %, v/v) was added and the samples kept on ice for 10 min. Samples were centrifuged at 20 000 g for 4 min, the supernatants retrieved and mixed 1 : 2 with a solution of 80 % HPLC buffer B (0.05 % (v/v) TFA in 90 % (v/v) CH3CN in water) and 20 % HPLC buffer A (0.058 % (v/v) TFA in water). Samples were analyzed by RP‐HPLC (detection at 214 nm) using a Nucleosil 100 C18 column (Grace; length 33 mm, i.d. 8 mm, 7 μm particle size). ^[24] The flow rate was 2 mL/min and the samples were analyzed with an elution program consisting of 2 steps; first step: 10 % HPLC buffer B in buffer A (1 min) and second step: a gradient from 10 to 90 % HPLC buffer B in buffer A (6 min). Peaks were collected, immediately frozen, lyophilized, and their molecular weights determined by MALDI‐MS. The HPLC peak areas were used to quantify remaining peptides in plasma.

[6] = test system: Primary human monocytes (MIF/CXCR2 axis); experiment: Transwell migration assay, MIF-induced monocyte chemotaxis; format: cell-based; conditions: peptide 5 μM, human MIF 8 nM, Transwell 5 μm pores, 3 h, 37 °C, n=3–11
Description: Transwell migration assay: The inhibitory potential of the MIF‐derived peptide analogues was measured by Transwell chemotaxis assay using CD14^+ monocytes isolated from PBMCs or the entire PBMC fraction, as previously described. ^[7a] Briefly, PBMCs from buffy coats or CD14+ monocytes isolated from PBMCs were diluted in RPMI1640 supplemented with 0.5 % bovine serum albumin (BSA) at a density of […] cells/mL. Cells were placed into the upper chamber of a 24‐well cell culture inserts with 5 μm pore size (Corning). 8 nM full‐length MIF served as chemoattractant and was pre‐incubated with or without 5 μM of the respective peptides and applied to the lower chamber. After a 3 h migration interval at 37 °C (5 % CO2), cells were collected and counted via a CASY Cell Counter (OLS, OMNI Life Science, Bremen, Germany).

half-life [5] | Molecule | CXCR2-binding response (change of resonant wavelength Δpm) [2] | Concentration dependence of CD spectra (solubility/aggregation check) [3] | other results
 | Fluos‐MIF(47–56): fluorescently labeled MIF(47–56), 5(6)‐carboxyfluorescein at the N-terminus (Fluos-MAFGGSSEPC; UniProt P14174 48-57, looked up, fragment) |  |  | Binding to cell surface-expressed CXCR2 (MFI) [1]: specifically bound to full‐length CXCR2
 | Ac-SFESGPAGML-NH2 [scrambled control sequence, reference compound] | fully abrogated |  | 
~30 min | Ac-LMAFGGSSEP-NH2 [MIF(47–56)] | found to bind to HEK293‐CXCR2 transfectants | no concentration dependence of the CD spectra | Direct binding to MIF [4]: does not directly bind to MIF; Inhibition of MIF-induced monocyte chemotaxis [6]: significantly inhibited
> 480 min | CSCC[C@@H]1NC(=O)[C@H](CC(C)C)NC(=O)CNC(=O)CNC(=O)[C@H](CO)NC(=O)CNC(=O)CNC(=O)[C@@H](N)CSSC[C@@H](C(=O)O)NC(=O)CNC(=O)CNC(=O)[C@H](CO)NC(=O)CNC(=O)CNC(=O)[C@@H]2CCCN2C(=O)[C@H](CCC(=O)O)NC(=O)[C@H](CO)NC(=O)[C@H](CO)NC(=O)CNC(=O)CNC(=O)[C@H](Cc2ccccc2)NC(=O)[C@H](C)NC1=O [MIF(cyclo10)] (H-CGGSGGLMAFGGSSEPGGSGGC-OH; disulfide 1-22) |  | no concentration dependence of the CD spectra | Time up to which appreciable amounts of intact peptide were detectable ([5]; human plasma, C18 HPLC and MALDI-MS): up to 48 h; Resistance to proteolysis relative to MIF(47–56) ([5]; human plasma, ratio of t1/2): more than 16 fold
